Results: patent US20170216295A1, “CCR9 ANTAGONIST COMPOUNDS” (Merck Sharp & Dohme Corp., priority 2014, published 2017)
Where “and” joins values, the source holds several entries; their conditions need not be identical. Equal entries are not always repeated.

Key:
[1] = Rat liver microsome clearance; format: in vitro ADME; conditions: first value of RLM/HLM cell
Method: Microsomal In-Vitro Clearance:
The test articles (2 μM) were incubated for one hour in 1 mg/mL rat hepatic microsomes with 2 mM NADPH at 37° C. with aliquots removed at t=0, 15, 30 and 60 minutes. Incubations were terminated at the specified times by protein precipitation, and samples were centrifuged. Resultant supernants were analyzed by LC-MS/MS for the amount of incubated compound remaining, and the half life (t1/2) and intrinsic microsomal clearance rate (CLint) of each compound was calculated.

[2] = Human liver microsome clearance; format: in vitro ADME; conditions: second value of RLM/HLM cell
[3] = pH-solubility (high-throughput, buffers); format: physicochemical; conditions: for Sol. pH 4: 1000 ug compound in 1 mL pH 4 buffer; for Sol. pH 7: 1000 ug compound in 1 mL pH 7 buffer; for Sol. pH 9: 1000 ug compound in 1 mL pH 9 buffer
Method: Solubility of representative acidic triazoles was measured in 3 buffer systems (pH 4, 7.4 and 9) using an in-house high-throughput solubility method. A stock solution of test article was prepared in DMA (20 mg/ml) and spiked into each buffer system (20× dilution) to target 1 mg/ml concentration. The samples were vortexed briefly and equilibrated for 24 hr at RT. Samples were then filtered using 0.22u PVDF membrane filters and analyzed for drug concentration using HPLC.

CCR9 receptor = molecular target: T1, CCR9 receptor (Homo sapiens, UniProt P51686); test: Calcium mobilization (Ca FLIPR) assay, antagonist mode vs TECK; format: cell-based; conditions: for LipE: LipE = pIC50-clogD; for IC50: cells expressing CCR9, TECK at EC80 0.01 uM, read-out: CCR9 Ca2+ IC50
T1 sequence (P51686 1-369): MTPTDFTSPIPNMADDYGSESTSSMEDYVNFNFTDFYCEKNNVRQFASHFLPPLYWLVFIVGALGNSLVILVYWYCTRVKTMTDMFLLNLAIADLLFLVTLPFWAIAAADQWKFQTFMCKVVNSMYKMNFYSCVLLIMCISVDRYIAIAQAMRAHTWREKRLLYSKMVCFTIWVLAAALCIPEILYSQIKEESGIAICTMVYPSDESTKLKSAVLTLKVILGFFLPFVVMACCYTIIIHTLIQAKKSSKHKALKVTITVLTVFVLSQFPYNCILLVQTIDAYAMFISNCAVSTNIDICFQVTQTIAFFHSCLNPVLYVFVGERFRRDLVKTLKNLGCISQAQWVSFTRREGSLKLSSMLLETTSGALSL
Method: Calcium Mobilization Assay:
Cells expressing CCR9 receptor (MultiSpan, Hayward, Calif.) were seeded in 384-well plates. Ca^2+ assays were conducted after overnight culture in the plates according to the manufacturer's protocol using Screen Quest™ Fluo-8 no wash kit (AAT Bioquest, Sunnyvale, Calif.). Dye loading buffer was added to the cells and incubated for 45 minutes at 37° C. followed by 15 minutes incubation at room temperature. Compounds in the presence of 0.1% DMSO were applied to the cells during calcium flux measurement. Calcium flux was monitored for 90 seconds with compound application after 10 seconds. For antagonist mode, cells were preincubated with the compound at room temperature for 10 minutes before the application of the control agonist TECK (Preprotech, Rocky Hill, N.J.) at EC80 concentration of 0.01 uM obtained from dose-response curves of control agonist.

Molt-4 cells = test: Chemotaxis assay of Molt-4 cells towards TECK; format: cell-based; conditions: Homo sapiens; Molt-4 cells in HBSS buffer with 0.1% BSA; TECK at EC80
Method: Molt-4 cells were harvested and re-suspended in HBSS buffer with 0.1% BSA or in 100% human serum. Cell suspensions were mixed with compound solutions for 10 min and then seeded onto the upper chamber of the ChemoTX chemotaxis plates with 5 μm pore size polycarbonate membrane from NeuroProbe (Gaithersburg, Md.). EC80 concentration of TECK was applied in the bottom chamber. After 2 hours of incubation at 37° C., the assay was terminated by removing the upper chamber. The cells migrated into the bottom chamber were quantified with CyQUANT solution from Invitrogen (Grand Island, N.Y.).

RLM CL (rat liver microsome hepatic clearance) [1]	HLM CL (human liver microsome hepatic clearance) [2]	Sol. pH 4 [3]	Sol. pH 7 [3]	Sol. pH 9 [3]	LipE (CCR9 receptor)	IC50 (CCR9 receptor)	IC50 (Molt-4 cells)	SMILES
						820 nM		Cc1c(Cc2ccc(C(C)(C)C)cc2)c(O)nc2ncnn12 [Compound 3]
						3700 nM		COc1c(Cc2ccc(C(C)(C)C)cc2)c(C)nc2nc(C(F)(F)F)nn12 [Compound 5]
						> 10000 nM		Cc1cn2c(O)c(Cc3ccc(C(C)(C)C)cc3)c(C)nc2n1 [Compound 9]
						> 10000 nM		CCc1nc2c[nH]nc2c(O)c1Cc1ccc(C(C)(C)C)cc1 [Compound 10]
39 mL/min/kg	6 mL/min/kg	2 ug/mL	7 ug/mL	358 ug/mL	5.9	2 nM	50 nM	CCc1nc2nc(N)nn2c(O)c1Cc1ccc(C(C)(C)C)cc1 [Compound 14]
43 mL/min/kg	12 mL/min/kg				4.1	33 nM	380 nM	CCc1nc2nc(N(C)C)nn2c(O)c1Cc1ccc(C(C)(C)C)cc1 [Compound 15]
36 mL/min/kg	13 mL/min/kg					7 nM	190 nM	CCc1nc2nc(COC)nn2c(O)c1Cc1ccc(C(C)(C)C)cc1 [Compound 17]
42 mL/min/kg	18 mL/min/kg	0 ug/mL	0 ug/mL	5 ug/mL		12 nM	520 nM	CCc1nc2nc(C(=O)N(C)C)nn2c(O)c1Cc1ccc(C(C)(C)C)cc1 [Compound 18]
16 mL/min/kg	11 mL/min/kg	79 ug/mL	117 ug/mL	914 ug/mL	4.2	8 nM	150 nM	CCOc1nc2nc(CC)c(Cc3ccc(C(C)(C)C)cc3)c(O)n2n1 [Compound 19]
43 mL/min/kg	12 mL/min/kg				3.9	27 nM	270 nM	CC(C)Cc1nc2ncnn2c(O)c1Cc1ccc(C(C)(C)C)cc1 [Compound 24]
52 mL/min/kg	11 mL/min/kg				4.8	23 nM	92 nM	CCOc1nc2ncnn2c(O)c1Cc1ccc(C(C)(C)C)cc1 [Compound 25]
					5.3	5 nM	104 nM	CC(C)(C)c1ccc(Cc2c(-c3ccoc3)nc3ncnn3c2O)cc1 [Compound 30]
	—/17 mL/min/kg	79 ug/mL	> 1000 ug/mL	> 1000 ug/mL	3	1900 nM		Cc1nc2nc(C(F)(F)F)nn2c(O)c1Cc1ccc(N2CC(C)OC(C)C2)c(F)c1 (centres unmarked) [Compound 33]
43 mL/min/kg	17 mL/min/kg				3.7	340 nM		Cc1nc2nc(C(F)(F)F)nn2c(O)c1Cc1ccc(C2(F)CCOCC2)cc1 [Compound 34]
37 mL/min/kg	17 mL/min/kg	>1000/>1000/>1000 ug/mL	>1000/>1000/>1000 ug/mL	>1000/>1000/>1000 ug/mL	5.7	22 nM	380 nM	CCc1nc2ncnn2c(O)c1Cc1ccc(C2(C)CCOCC2)cc1 [Compound 35]
49 mL/min/kg	20 mL/min/kg	62 ug/mL	> 1000 ug/mL	> 1000 ug/mL	5.9	13 nM	60 nM	CCc1nc2ncnn2c(O)c1Cc1ccc(C(C)(C)COC)cc1 [Compound 36]

Continued, molecule first:

SMILES	RLM CL (rat liver microsome hepatic clearance) [1]	HLM CL (human liver microsome hepatic clearance) [2]	Sol. pH 4 [3]	Sol. pH 7 [3]	Sol. pH 9 [3]	LipE (CCR9 receptor)	IC50 (CCR9 receptor)	IC50 (Molt-4 cells)
Cc1nc2nc(C(F)(F)F)nn2c(O)c1Cc1ccc(C(C)(C)C)cc1 [Compound 2]	54 mL/min/kg	19 mL/min/kg	4 ug/mL	565 ug/mL	1035 ug/mL and > 1000 ug/mL	2.6	410 nM	
Cc1c(Cc2ccc(C(C)(C)C)cc2)c(=O)n2nc(C(F)(F)F)nc2n1C [Compound 4]							> 20000 nM	
Cc1nc2cc(C(F)(F)F)nn2c(O)c1Cc1ccc(C(C)(C)C)cc1 [Compound 7]	42 mL/min/kg	18 mL/min/kg	0 ug/mL	0 ug/mL	5 ug/mL		110 nM	980 nM
CCc1nc2n[nH]c(=O)n2c(O)c1Cc1ccc(C(C)(C)C)cc1 [Compound 8]	39 mL/min/kg	4 mL/min/kg	79 ug/mL	117 ug/mL	914 ug/mL	5.5	28 nM	230 nM
Cc1nc2nc(C)c(Cc3ccc(C(C)(C)C)cc3)c(O)n2n1 [Compound 12]	50 mL/min/kg	11 mL/min/kg				3.9	220 nM	
CCc1nc2nc(C)nn2c(O)c1Cc1ccc(C(C)(C)C)cc1 [Compound 13]						4.4	19 nM	130 nM
CCc1nc2nc(CN(C)C)nn2c(O)c1Cc1ccc(C(C)(C)C)cc1 [Compound 16]							290 nM	
CCc1nc2nc(CO)nn2c(O)c1Cc1ccc(C(C)(C)C)cc1 [Compound 20]	43 mL/min/kg	8 mL/min/kg				5.5	10 nM	200 nM
CCc1nc2ncnn2c(O)c1Cc1ccc(C(C)(C)C)cc1 [Compound 21]	51 mL/min/kg	12 mL/min/kg				4.8	21 nM	88 nM
CCCc1nc2ncnn2c(O)c1Cc1ccc(C(C)(C)C)cc1 [Compound 22]						5.0	4 nM	55 nM
CC(C)c1nc2ncnn2c(O)c1Cc1ccc(C(C)(C)C)cc1 [Compound 23]	44 mL/min/kg	13 mL/min/kg	2 ug/mL	7 ug/mL	358 ug/mL	4.0	52 nM	340 nM
CC(C)(C)c1ccc(Cc2c(C3CCCC3)nc3ncnn3c2O)cc1 [Compound 28]	47 mL/min/kg	11 mL/min/kg					15 nM	145 nM
CC(C)(C)c1ccc(Cc2c(C3CCOC3)nc3ncnn3c2O)cc1 (centres unmarked) [Compound 29]	45 mL/min/kg	8 mL/min/kg					17 nM	205 nM
CC(C)(C)c1ccc(Cc2c(O)nc3ncnn3c2O)cc1 [Compound 31]							> 10000 nM	
CN(C)c1nc2ncnn2c(O)c1Cc1ccc(C(C)(C)C)cc1 [Compound 32]							> 1000 nM	
